The record followed here is ChEMBL document CHEMBL5352497, “Aromatic hydrazides: A potential solution for Acinetobacter baumannii infections” (Eur J Med Chem, 2023).

Data set [1] has as its system HEK293. Put plainly: Cytotoxicity against HEK293 cells at 32 ug/ml. Particulars: human, at 32 µg/mL. It counts as toxicity, cell-based.
The test system of data set [2] is Acinetobacter baumannii. Put plainly: Antibacterial activity against Acinetobacter baumannii ATCC 19606. It counts as functional.
The test system of a further data set is Bacillus anthracis. As to the kind of experiment: Antibacterial activity against Bacillus anthracis Sterne F32. It counts as functional.
The test system of data set [3] is Acinetobacter baumannii. Put plainly: Bactericidal activity against Acinetobacter baumannii ATCC 19606 assessed as reduction in colony forming unit at 1 to 4 times MIC measured after 24 hrs. It counts as functional, organism-based.
Data set [4] concerns HEK293. Put plainly: Cytotoxicity against HEK293 cells at 8 ug/ml. It counts as toxicity, cell-based. As to conditions: human, dose 8 µg/ml.
The test system of data set [5] is Acinetobacter baumannii. Put plainly: Induction of resistance development in Acinetobacter baumannii ATCC 19606 assessed as fold increase in MIC measured after 15 passages. It counts as functional.
Another data set relates to Escherichia coli. Put plainly: Antibacterial activity against Escherichia coli MC1061. It counts as functional.
The subject of the next data set is Erythrocyte. Put plainly: (§1) Hemolytic activity in mouse RBC at 32 ug/ml incubated for 1 hr. It counts as toxicity, cell-based. Particulars: erythrocyte, 1 h, dose 32 µg/ml.
In data set [6] the test system is Staphylococcus epidermidis. Put plainly: Antibacterial activity against Staphylococcus epidermidis ATCC 12228. It counts as functional.
The test system of a further data set is Staphylococcus aureus. Put plainly: Antibacterial activity against Staphylococcus aureus ATCC 25923. It counts as functional.
Data set [7] relates to Acinetobacter baumannii. Put plainly: Antibiofilm activity against Acinetobacter baumannii ATCC 19606 assessed as inhibition of biofilm formation at 0.5 ug/ml by crystal violet assay. It counts as functional. Set-up: scale not given: the % may be the effect or the level left. Particulars: dose 0.5 µg/ml.
The subject of another data set is Salmonella enterica. As to the kind of experiment: Antibacterial activity against Salmonella enterica ATCC 14028. It counts as functional.
Data set [8] has as its system Acinetobacter baumannii. Put plainly: Antibacterial activity against Acinetobacter baumannii BAA1605. It counts as functional.
Another data set deals with Pseudomonas aeruginosa. As to the kind of experiment: Antibacterial activity against Pseudomonas aeruginosa ATCC 27853. It counts as functional.
A further data set has as its system Enterobacter cloacae. Put plainly: Antibacterial activity against Enterobacter cloacae ATCC 13047. It counts as functional.
Data set [9] in a line: Hemolytic activity in mouse RBC at 8 ug/ml incubated for 1 hr. It counts as toxicity, cell-based, Erythrocyte. As to conditions: red blood cells (erythrocytes), at 8 µg/mL, read-out: Activity.
The next data set relates to Klebsiella pneumoniae. As to the kind of experiment: Antibacterial activity against Klebsiella pneumoniae ATCC 27736. It counts as functional.
Data set [10] relates to Acinetobacter baumannii. As to the kind of experiment: Bacteriostatic activity against Acinetobacter baumannii ATCC 19606 assessed as reduction in colony forming unit incubated for 9 hrs. It counts as functional, organism-based.
Data set [11] has as its system Acinetobacter baumannii. Put plainly: microbe, parasite or virus in culture. Particulars: ATCC 19606.
In data set [12] the test system is Acinetobacter baumannii. Put plainly: Bacteriostatic activity against Acinetobacter baumannii ATCC 19606 assessed as reduction in colony forming unit incubated for 24 hrs. It counts as functional, organism-based.
Data set [13] can be described thus: as §1. It counts as toxicity, cell-based, Erythrocyte. As to conditions: red blood cells (erythrocytes), at 32 µg/mL, read-out: Activity.

Values after ≈ are worked out from the molar mass of the structure shown. Active and inactive are the calls of the source.

Consider `O=C(NNc1ccc(Cl)cc1)c1ccc(F)cn1`, for which the Activity with HEK293 [1] is on record as 17%; in the data set on HEK293 [4], “Non-Toxic”; in the data set on Erythrocyte, “Non-Toxic”; in the data set on Acinetobacter baumannii [7], 30%. The MIC is 1 µg/mL (≈ 3.76 µM) with Acinetobacter baumannii [2]; above 64 µg/mL against Bacillus anthracis; 16 µg/mL (≈ 60.2 µM) in the data set on Escherichia coli; above 64 µg/mL in data set [6]; above 64 µg/mL with Staphylococcus aureus; 64 µg/mL (≈ 241 µM) with Salmonella enterica. Moreover, the MIC is at most 0.125 µg/mL against Acinetobacter baumannii [8], above 64 µg/mL with Pseudomonas aeruginosa, 16 µg/mL (≈ 60.2 µM) in the data set on Enterobacter cloacae and 64 µg/mL (≈ 241 µM) in the data set on Klebsiella pneumoniae. Besides, the outcome in the data set on Acinetobacter baumannii [3] was Active. In addition, the “fold change (FC)” value in the data set on Acinetobacter baumannii [5] was 2. In data set [9], the hemolysis at 1 h, 8 ug/ml is below 10%.
Take `O=C(O)c1cn(C2CC2)c2cc(N3CCNCC3)c(F)cc2c1=O` [CIPROFLOXACIN]: the outcome in the data set on Acinetobacter baumannii [10] and in the data set with Acinetobacter baumannii [12] was Active. The MIC is 1 µg/mL (≈ 3.02 µM) with Acinetobacter baumannii [2]; 2 µg/mL (≈ 6.04 µM) against Acinetobacter baumannii [11]; 1 µg/mL (≈ 3.02 µM) against Bacillus anthracis; at most 0.063 µg/mL against Escherichia coli; at most 0.063 µg/mL in [6]; at most 0.063 µg/mL with Staphylococcus aureus. Also, the MIC against Salmonella enterica is at most 0.063 µg/mL; with Acinetobacter baumannii [8], 2 µg/mL (≈ 6.04 µM); against Klebsiella pneumoniae, at most 0.063 µg/mL. For the same compound, the Activity entry in the data set on Erythrocyte is listed as “Non-Toxic”. The hemolysis at 1 h, 8 ug/ml in data set [9] was below 10%.
`O=C(NNc1ccc(Cl)cc1)c1cc2ccccc2[nH]1`: the MIC in the data set with Acinetobacter baumannii [2] is 0.5 µg/mL (≈ 1.75 µM); in the data set on Bacillus anthracis it was above 64 µg/mL; against Escherichia coli it was above 64 µg/mL; in [6] it was above 64 µg/mL; against Staphylococcus aureus it was above 64 µg/mL; against Salmonella enterica, above 64 µg/mL. Also, the MIC in the data set with Acinetobacter baumannii [8] was 0.25 µg/mL (≈ 0.875 µM); against Pseudomonas aeruginosa it was above 64 µg/mL; with Enterobacter cloacae, above 64 µg/mL; in the data set with Klebsiella pneumoniae, above 64 µg/mL. For the same compound, the Activity result in the data set with HEK293 [4] and in the data set on Erythrocyte was “Non-Toxic” throughout. Also, the hemolysis at 1 h, 8 ug/ml in data set [9] was below 10%.
As for `O=C(NNc1ccc(Cl)cc1)c1cccc(F)n1`, the MIC against Acinetobacter baumannii [2] is at most 0.125 µg/mL; against Bacillus anthracis, above 64 µg/mL; against Escherichia coli it was 16 µg/mL (≈ 60.2 µM); in data set [6], above 64 µg/mL; with Staphylococcus aureus it was above 64 µg/mL; in the data set on Salmonella enterica it was 16 µg/mL (≈ 60.2 µM). In addition, the MIC with Acinetobacter baumannii [8] was at most 0.125 µg/mL; in the data set on Pseudomonas aeruginosa, above 64 µg/mL; with Enterobacter cloacae it was 16 µg/mL (≈ 60.2 µM); against Klebsiella pneumoniae it was 16 µg/mL (≈ 60.2 µM). The Activity entry with HEK293 [4] and in the data set on Erythrocyte was “Non-Toxic” each time. Further, the hemolysis at 1 h, 8 ug/ml in [9] is below 10%.
`O=C(NNc1cccc(Cl)c1)c1ccccn1`: the MIC in the data set on Acinetobacter baumannii [2] was 2 µg/mL (≈ 8.07 µM); against Bacillus anthracis it was above 64 µg/mL; against Escherichia coli, 4 µg/mL (≈ 16.1 µM); in data set [6] it was above 64 µg/mL; against Staphylococcus aureus, above 64 µg/mL; against Salmonella enterica, 16 µg/mL (≈ 64.6 µM). In addition, the MIC against Acinetobacter baumannii [8] is 1 µg/mL (≈ 4.04 µM); in the data set with Pseudomonas aeruginosa it was above 64 µg/mL; against Enterobacter cloacae, 4 µg/mL (≈ 16.1 µM); in the data set on Klebsiella pneumoniae, 16 µg/mL (≈ 64.6 µM). For the same compound, the Activity entry with HEK293 [4] and in the data set on Erythrocyte was “Non-Toxic” each time. For the same compound, in [9], the hemolysis at 1 h, 8 ug/ml is below 10%.
Take `O=C(NNc1ccc(Cl)cc1)c1ccco1`: the MIC against Acinetobacter baumannii [2] was 0.5 µg/mL (≈ 2.11 µM); in the data set with Bacillus anthracis it was above 64 µg/mL; against Escherichia coli, 16 µg/mL (≈ 67.6 µM); in [6], 64 µg/mL (≈ 270 µM); in the data set with Staphylococcus aureus it was 64 µg/mL (≈ 270 µM); in the data set with Salmonella enterica, 16 µg/mL (≈ 67.6 µM). For the same compound, the MIC is at most 0.125 µg/mL with Acinetobacter baumannii [8], above 64 µg/mL in the data set on Pseudomonas aeruginosa, 4 µg/mL (≈ 16.9 µM) against Enterobacter cloacae and 16 µg/mL (≈ 67.6 µM) in the data set with Klebsiella pneumoniae. Besides, the Activity entry in the data set on HEK293 [4] and in the data set with Erythrocyte was “Non-Toxic” each time. In [9], the hemolysis at 1 h, 8 ug/ml is below 10%.
On to `O=C(NNc1ccc(F)cc1)c1ccc(F)cn1`, for which the MIC in the data set on Acinetobacter baumannii [2] was 0.5 µg/mL (≈ 2.01 µM); in the data set with Bacillus anthracis, above 64 µg/mL; against Escherichia coli it was 64 µg/mL (≈ 257 µM); in data set [6] it was above 64 µg/mL; against Staphylococcus aureus it was above 64 µg/mL; in the data set on Salmonella enterica, 64 µg/mL (≈ 257 µM). Moreover, the MIC is 0.25 µg/mL (≈ 1 µM) in the data set with Acinetobacter baumannii [8], above 64 µg/mL in the data set with Pseudomonas aeruginosa, 64 µg/mL (≈ 257 µM) against Enterobacter cloacae and 64 µg/mL (≈ 257 µM) against Klebsiella pneumoniae. Moreover, the Activity result in the data set with HEK293 [4] and in the data set on Erythrocyte was “Non-Toxic” throughout. Besides, in [9], the hemolysis at 1 h, 8 ug/ml was below 10%.
`O=C(NNc1cccc(F)c1)c1ccc(F)cn1`: the MIC is 0.5 µg/mL (≈ 2.01 µM) in the data set with Acinetobacter baumannii [2]; above 64 µg/mL with Bacillus anthracis; 64 µg/mL (≈ 257 µM) against Escherichia coli; above 64 µg/mL in [6]; above 64 µg/mL with Staphylococcus aureus; above 64 µg/mL against Salmonella enterica. Moreover, the MIC against Acinetobacter baumannii [8] was 0.5 µg/mL (≈ 2.01 µM); against Pseudomonas aeruginosa, above 64 µg/mL; in the data set with Enterobacter cloacae, above 64 µg/mL; against Klebsiella pneumoniae, above 64 µg/mL. The Activity result in the data set with HEK293 [4] and with Erythrocyte was “Non-Toxic” each time. Moreover, the hemolysis at 1 h, 8 ug/ml in data set [9] was below 10%.
On to `O=C(NNc1ccc(Cl)cc1)c1ccccn1`, for which the MIC was 0.25 µg/mL (≈ 1.01 µM) in the data set with Acinetobacter baumannii [2]; above 64 µg/mL in the data set with Bacillus anthracis; 16 µg/mL (≈ 64.6 µM) in the data set with Escherichia coli; above 64 µg/mL in data set [6]; above 64 µg/mL in the data set on Staphylococcus aureus; 64 µg/mL (≈ 258 µM) with Salmonella enterica. In addition, the MIC in the data set with Acinetobacter baumannii [8] is 0.25 µg/mL (≈ 1.01 µM); against Pseudomonas aeruginosa, above 64 µg/mL; against Enterobacter cloacae it was 64 µg/mL (≈ 258 µM); in the data set on Klebsiella pneumoniae it was 64 µg/mL (≈ 258 µM). The Activity entry with HEK293 [4] and in the data set on Erythrocyte was “Non-Toxic” in each case. In addition, the hemolysis at 1 h, 8 ug/ml in [9] is below 10%.
With `O=C(NNc1cccc(F)c1)c1ccc2ccccc2n1`, the Activity with HEK293 [1] is 40%; with HEK293 [4], “Non-Toxic”. Also, the hemolysis at 1 h, 32 ug/ml in [13] worked out at 20%. Besides, in [9], the hemolysis at 1 h, 8 ug/ml was below 10%.
`O=C(NNc1ccc(Cl)cc1)c1ccc2ccccc2n1`: the MIC is 0.5 µg/mL (≈ 1.68 µM) in the data set with Acinetobacter baumannii [2]; above 64 µg/mL in the data set with Bacillus anthracis; 16 µg/mL (≈ 53.7 µM) against Escherichia coli; above 64 µg/mL in data set [6]; above 64 µg/mL in the data set with Staphylococcus aureus; above 64 µg/mL with Salmonella enterica. The MIC is 0.5 µg/mL (≈ 1.68 µM) in the data set on Acinetobacter baumannii [8], above 64 µg/mL with Pseudomonas aeruginosa, above 64 µg/mL with Enterobacter cloacae and above 64 µg/mL against Klebsiella pneumoniae. Also, the Activity result with HEK293 [4] and with Erythrocyte was “Non-Toxic” throughout. For the same compound, the hemolysis at 1 h, 8 ug/ml in data set [9] was below 10%.
